Calls of active or inactive are those of the source. How the calls were made is not given here.
Test system: CCRIS mutagenicity, Ames/micronucleus/aberration tests
Assay: CCRIS mutagenicity studies
[1] = Test System: AMES SALMONELLA TYPHIMURIUM, Strain/Indicator: TA97, Metabolic Activation: NONE, Method: PREINCUBATION
[2] = Test System: AMES SALMONELLA TYPHIMURIUM, Strain/Indicator: TA98, Metabolic Activation: NONE, Method: PREINCUBATION
[3] = Test System: AMES SALMONELLA TYPHIMURIUM, Strain/Indicator: TA100, Metabolic Activation: NONE, Method: PREINCUBATION
[4] = Test System: AMES SALMONELLA TYPHIMURIUM, Strain/Indicator: TA1535, Metabolic Activation: NONE, Method: PREINCUBATION

For `Cc1c(N=C=O)cccc1N=C=O`, the mutagenic call (End Point: IN VITRO CHROMOSOMAL ABERRATIONS, Test System: CHL CELLS, Metabolic Activation: RAT, LIVER, S-9, SODIUM PHENOBARBITAL AND 5,6-BENZOFLAVONE) was “active; positive (ploidy changes); authors report equivocal results for structural chang”, the mutagenic call (End Point: IN VITRO CHROMOSOMAL ABERRATIONS, Test System: CHO CELLS, Metabolic Activation: RAT, LIVER, S-9, AROCLOR 1254) was “inactive; negative; precipitation occurred at 500 ug/ml” and the mutagenic call (Test System: AMES SALMONELLA TYPHIMURIUM, Strain/Indicator: TA97, Metabolic Activation: HAMSTER, LIVER, S-9, AROCLOR 1254 (10%), Method: PREINCUBATION) was “inactive; negative”. The mutagenic call [1] was “inactive; negative”, the mutagenic call (Test System: AMES SALMONELLA TYPHIMURIUM, Strain/Indicator: TA97, Metabolic Activation: RAT, LIVER, S-9, AROCLOR 1254 (10%), Method: PREINCUBATION) was “inactive; negative” and the mutagenic call (Test System: AMES SALMONELLA TYPHIMURIUM, Strain/Indicator: TA98, Metabolic Activation: HAMSTER, LIVER, S-9, AROCLOR 1254 (10%), Method: PREINCUBATION) was “active; positive”. For the same compound, the mutagenic call [2] was “inactive; negative”, the mutagenic call (Test System: AMES SALMONELLA TYPHIMURIUM, Strain/Indicator: TA98, Metabolic Activation: RAT LIVER S-9 AROCLOR 1254 (10 OR 30%), Method: STANDARD PLATE) was “active; positive” and the mutagenic call (Test System: AMES SALMONELLA TYPHIMURIUM, Strain/Indicator: TA98, Metabolic Activation: RAT, LIVER, S-9, AROCLOR 1254 (10%), Method: PREINCUBATION) was “active; positive”. The mutagenic call (Test System: AMES SALMONELLA TYPHIMURIUM, Strain/Indicator: TA100, Metabolic Activation: HAMSTER, LIVER, S-9, AROCLOR 1254 (10%), Method: PREINCUBATION) was “active; positive”, the mutagenic call [3] was “inactive; negative” and the mutagenic call (Test System: AMES SALMONELLA TYPHIMURIUM, Strain/Indicator: TA100, Metabolic Activation: RAT, LIVER, S-9, AROCLOR 1254 (10%), Method: PREINCUBATION) was “inactive; negative”. For the same compound, the mutagenic call (Test System: AMES SALMONELLA TYPHIMURIUM, Strain/Indicator: TA1535, Metabolic Activation: HAMSTER, LIVER, S-9, AROCLOR 1254 (10%), Method: PREINCUBATION) was “inactive; negative”, the mutagenic call [4] was “inactive; negative” and the mutagenic call (Test System: AMES SALMONELLA TYPHIMURIUM, Strain/Indicator: TA1535, Metabolic Activation: RAT LIVER S-9, PHENOBARBITAL AND BETA-NAPHTHOFLAVONE, Method: PREINCUBATION) was “inactive; negative”. For the same compound, the mutagenic call (Test System: AMES SALMONELLA TYPHIMURIUM, Strain/Indicator: TA1535, Metabolic Activation: RAT, LIVER, S-9, AROCLOR 1254 (10%), Method: PREINCUBATION) was “inactive; negative”, the mutagenic call (Test System: AMES SALMONELLA TYPHIMURIUM, Strain/Indicator: TA1537, Metabolic Activation: NONE, Method: PREINCUBATION) was “inactive; negative” and the mutagenic call (Test System: AMES SALMONELLA TYPHIMURIUM, Strain/Indicator: TA1537, Metabolic Activation: RAT LIVER S-9, AROCLOR 1254 (10 OR 30%), Method: STANDARD PLATE) was “inactive; negative”. For the same compound, the mutagenic call (Test System: AMES SALMONELLA TYPHIMURIUM, Strain/Indicator: TA1537, Metabolic Activation: RAT LIVER S-9, PHENOBARBITAL AND BETA-NAPHTHOFLAVONE, Method: PREINCUBATION) was “inactive; negative”, the mutagenic call (Test System: E.COLI, Strain/Indicator: WP2UVRA, Metabolic Activation: NONE, Method: PREINCUBATION) was “inactive; negative” and the mutagenic call (Test System: E.COLI, Strain/Indicator: WP2UVRA, Metabolic Activation: RAT LIVER S-9, PHENOBARBITAL AND BETA-NAPHTHOFLAVONE, Method: PREINCUBATION) was “inactive; negative”. The mutagenic call (Test System: MOUSE LYMPHOMA, Strain/Indicator: L5178Y (TK+/TK-), Metabolic Activation: NONE, Method: SUSPENSION/PLATE) was “active; positive” and the mutagenic call (Test System: MOUSE LYMPHOMA, Strain/Indicator: L5178Y (TK+/TK-), Metabolic Activation: RAT, LIVER, S-9, AROCLOR 1254, Method: SUSPENSION/PLATE) was “active; positive”.

For `CC(C)(C)C1=CC(=O)C=C(C2=CC(=O)C=C(C(C)(C)C)C2=O)C1=O`, the mutagenic call [2] was “active; positive” and the mutagenic call [3] was “active; positive”.

With `CCOC(=O)C1C(C=C(C)C)C1(C)C` (centres undefined) the mutagenic call (Test System: AMES SALMONELLA TYPHIMURIUM, Strain/Indicator: TA98, Metabolic Activation: NONE, Method: STANDARD PLATE) was “inactive; negative”, the mutagenic call (Test System: AMES SALMONELLA TYPHIMURIUM, Strain/Indicator: TA98, Metabolic Activation: RAT, LIVER, S-9, AROCLOR 1254, Method: STANDARD PLATE) was “inactive; negative” and the mutagenic call (Test System: AMES SALMONELLA TYPHIMURIUM, Strain/Indicator: TA100, Metabolic Activation: NONE, Method: STANDARD PLATE) was “inactive; negative”. For the same compound, the mutagenic call (Test System: AMES SALMONELLA TYPHIMURIUM, Strain/Indicator: TA100, Metabolic Activation: RAT, LIVER, S-9, AROCLOR 1254, Method: STANDARD PLATE) was “inactive; negative”, the mutagenic call (Test System: AMES SALMONELLA TYPHIMURIUM, Strain/Indicator: TA1535, Metabolic Activation: NONE, Method: STANDARD PLATE) was “inactive; negative” and the mutagenic call (Test System: AMES SALMONELLA TYPHIMURIUM, Strain/Indicator: TA1535, Metabolic Activation: RAT, LIVER, S-9, AROCLOR 1254, Method: STANDARD PLATE) was “inactive; negative”. The mutagenic call (Test System: AMES SALMONELLA TYPHIMURIUM, Strain/Indicator: TA1537, Metabolic Activation: NONE, Method: STANDARD PLATE) was “inactive; negative”, the mutagenic call (Test System: AMES SALMONELLA TYPHIMURIUM, Strain/Indicator: TA1537, Metabolic Activation: RAT, LIVER, S-9, AROCLOR 1254, Method: STANDARD PLATE) was “inactive; negative” and the mutagenic call (Test System: E. COLI, Strain/Indicator: WP2, Metabolic Activation: NONE, Method: STANDARD PLATE) was “inactive; negative”. The mutagenic call (Test System: E. COLI, Strain/Indicator: WP2, Metabolic Activation: RAT, LIVER, S-9, AROCLOR 1254, Method: STANDARD PLATE) was “inactive; negative”.

With `O=NN1CCOC(O)C1` (centres undefined) the mutagenic call [3] was “active; positive”, the mutagenic call [4] was “active; positive” and the mutagenic call (Test System: AMES SALMONELLA TYPHIMURIUM, Strain/Indicator: TA1535, Metabolic Activation: RAT, LIVER, S-9, AROCLOR 1254, Method: PREINCUBATION) was “active; positive”.

`CCOC(C)(C)C` was tested, and the mutagenic call (Test System: AMES SALMONELLA TYPHIMURIUM, Strain/Indicator: TA97, Metabolic Activation: HAMSTER, LIVER, S-9, AROCLOR 1254 (10 OR 30%), Method: PREINCUBATION) was “inactive; negative”, the mutagenic call [1] was “inactive; negative” and the mutagenic call (Test System: AMES SALMONELLA TYPHIMURIUM, Strain/Indicator: TA97, Metabolic Activation: RAT, LIVER, S-9, AROCLOR 1254 (10 OR 30%), Method: PREINCUBATION) was “inactive; negative”. The mutagenic call (Test System: AMES SALMONELLA TYPHIMURIUM, Strain/Indicator: TA98, Metabolic Activation: HAMSTER, LIVER, S-9, AROCLOR 1254 (10 OR 30%), Method: PREINCUBATION) was “inactive; negative”, the mutagenic call [2] was “inactive; negative” and the mutagenic call (Test System: AMES SALMONELLA TYPHIMURIUM, Strain/Indicator: TA98, Metabolic Activation: RAT, LIVER, S-9, AROCLOR 1254 (10 OR 30%), Method: PREINCUBATION) was “inactive; negative”. The mutagenic call (Test System: AMES SALMONELLA TYPHIMURIUM, Strain/Indicator: TA100, Metabolic Activation: HAMSTER, LIVER, S-9, AROCLOR 1254 (10 OR 30%), Method: PREINCUBATION) was “inactive; negative”, the mutagenic call [3] was “inactive; negative” and the mutagenic call (Test System: AMES SALMONELLA TYPHIMURIUM, Strain/Indicator: TA100, Metabolic Activation: RAT, LIVER, S-9, AROCLOR 1254 (10 OR 30%), Method: PREINCUBATION) was “inactive; negative”. The mutagenic call (Test System: AMES SALMONELLA TYPHIMURIUM, Strain/Indicator: TA1535, Metabolic Activation: HAMSTER, LIVER, S-9, AROCLOR 1254 (10 OR 30%), Method: PREINCUBATION) was “inactive; negative”, the mutagenic call [4] was “inactive; negative” and the mutagenic call (Test System: AMES SALMONELLA TYPHIMURIUM, Strain/Indicator: TA1535, Metabolic Activation: RAT, LIVER, S-9, AROCLOR 1254 (10 OR 30%), Method: PREINCUBATION) was “inactive; negative”.

For `C=C(Cl)C=O`, the mutagenic call (Test System: AMES SALMONELLA TYPHIMURIUM, Strain/Indicator: TA100, Metabolic Activation: NONE, Method: LIQUID INCUBATION) was “active; positive”, the mutagenic call (Test System: AMES SALMONELLA TYPHIMURIUM, Strain/Indicator: TA100, Metabolic Activation: NONE, Method: PREINCUBATION, LIQUID INCUBATION) was “active; positive” and the mutagenic call (Test System: AMES SALMONELLA TYPHIMURIUM, Strain/Indicator: TA1535, Metabolic Activation: NONE, Method: LIQUID INCUBATION) was “active; positive”. For the same compound, the mutagenic call (Test System: AMES SALMONELLA TYPHIMURIUM, Strain/Indicator: TA1535, Metabolic Activation: NONE, Method: PREINCUBATION, LIQUID INCUBATION) was “active; positive”.

From PubChem BioAssay AID1259407 (Chemical Carcinogenesis Research Information System (CCRIS), 2018)
